From patent publication US8613927B2, “High affinity human antibodies to human nerve growth factor” (Regeneron Pharmaceuticals, Inc., priority 2007, dated 2013)
pKd: −log10 of the molar value.

Tests used:
[1] = target: T1, human NT-3 binding to human TrkB-hFc (Homo sapiens, UniProt P20783); assay: BIACORE, NT-3 binding to TrkB-hFc surface in presence of antibody; details: 20 nM NT-3 + 500 nM sample; normalized to IgG1 control
T1 sequence (P20783 139-257): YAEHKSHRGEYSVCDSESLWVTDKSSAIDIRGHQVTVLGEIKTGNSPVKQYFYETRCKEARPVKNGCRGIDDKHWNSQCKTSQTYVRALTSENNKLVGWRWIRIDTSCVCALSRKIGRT
Procedure: (§1) Human TrkA-hFc (9300 RU), human TrkB-hFc (6000 RU), human TrkC-hFc (9100 RU) and human p75-hFc (7500 RU) were covalently coupled to BIACORE® CM5 chip surfaces by amine-coupling procedure. […] The binding mixture was first incubated at room temperature to reach equilibrium (about 1 hr) and then was injected over the above TrkA-hFc, TrkB-hFc, TrkC-hFc and p75-hFc surfaces. The level of human NT-3 binding in each sample was measured. The binding RU from each sample mixture was normalized according to the RU value from the negative control sample (i.e., 20 nM human NT-3 with 500 nM AVASTIN®) and presented as % binding to Trk surfaces (Table 9).

NGF = NGF (Homo sapiens, UniProt P01138, DEL136-138/DEL208-209); assay: BIACORE cross-reactivity test, NGF injected at 20 nM; format: binding; details: Table 3; NGF 20 nM
NGF, sequence (P01138 with tags, fused parts or gaps DEL136-138/DEL208-209): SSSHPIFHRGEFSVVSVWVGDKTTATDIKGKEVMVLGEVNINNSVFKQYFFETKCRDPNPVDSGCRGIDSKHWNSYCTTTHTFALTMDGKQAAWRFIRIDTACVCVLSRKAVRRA
Procedure: The anti-NGF antibodies were examined for binding cross-reactivity with human NT-3. Briefly, goat anti-human IgG polyclonal antibody was chemically linked to a CM5 chip. Anti-NGF monoclonal antibodies were injected forming a surface of about 50 to 900 RU of immobilized antibody through the interaction with the chip coupled polyclonal antibodies. NGF or NT-3 protein at a concentration of 20 nM was injected over the surface, followed by a buffer wash to allow bound ligand to dissociate. Both association and dissociation phases were monitored and data were analyzed. Results are shown in Table 3 (NB=no binding activity observed).

[2] = target: T2, human NT-3 binding to human TrkC-hFc (Homo sapiens, UniProt P20783); assay: BIACORE, NT-3 binding to TrkC-hFc surface in presence of antibody; details: 20 nM NT-3 + 500 nM sample; normalized to IgG1 control
T2 sequence (P20783 139-257): T1 sequence (P20783 139-257)
Procedure: as §1

C57BL/6 mice [3] = assay: Post-operative incision pain model, weight bearing test; format: in vivo, mouse; details: for mean percent weight distribution on affected limb: Table 15
Procedure: Post-operative incision pain model. A rodent model of post-operative pain in which a hind paw plantar incision causes increased sensitivity to touch, guarding behavior, and thermal hyperalgesia, was used to study the efficacy of anti-NGF antibody therapy. For the plantar incision surgery, C57BL/6 mice under isoflurane received an incision through skin, fascia and then isolating the underlying flexor muscle and bisecting vertically. After suture and recovery, the mice were tested for thermal hyperalgesia in the Hargreaves' test and for guarding behavior in the weight bearing test (model 600, IITC Life Science) for 5 days.

C57BL/6 male mice = assay: Seltzer model of neuropathic pain, Hargreaves' test; format: in vivo, mouse
From the text: Neuropathic pain. The mouse Seltzer model of neuropathic pain (Malmberg et al. (1998) Pain 76:215-222) was used with C57BL/6 male mice, in which a partial nerve injury was produced by tying a tight ligature with a 7-0 silk suture around approximately ⅓ to ½ the diameter of the sciatic nerve of one single thigh per mouse. Post-surgery, the mice were allowed to recover for at least two days and then they were studied for several weeks post-surgery for thermal hyperalgesia in the Hargreaves' test. Controls were sham-operated mice in which the sciatic nerve was exposed and elevated but not tied. Following surgery, the mice were tested at day […] and at day 7 post-surgery to confirm that the thermal hyperalgesia had developed.
Following the Seltzer surgery, mice were tested at days 5 and 7 post-surgery to confirm that the thermal hyperalgesia had developed.

[4] = target: T3, human NT-3 binding to human TrkA-hFc (Homo sapiens, UniProt P20783); assay: BIACORE, NT-3 binding to TrkA-hFc surface in presence of antibody; details: 20 nM NT-3 + 500 nM sample; normalized to IgG1 control
T3 sequence (P20783 139-257): T1 sequence (P20783 139-257)
Procedure: as §1

C57BL/6 mice [5] = assay: Post-operative incision pain model, mechanical allodynia in von Frey test; format: in vivo, mouse; details: Table 17
Procedure: Thermal hyperalgesia was studied in the Hargreaves' test and mechanical allodynia was tested in the von Frey test. In this latter test, mice were tested after being acclimated for 2-3 hours for 4 days in an apparatus with a wire mesh floor. The test was performed by applying, in ascending order, a series of von Frey hairs through the wire mesh onto the plantar surface of the hind paw with the incision. A response was considered positive if the paw was raised from the platform in response to application of the filament. Starting from the thinnest hair, each von Frey filament was applied up to five times until a response was observed.

[6] = target: T4, human NT-3 binding to human p75-hFc (Homo sapiens, UniProt P20783); assay: BIACORE, NT-3 binding to p75-hFc surface in presence of antibody; details: 20 nM NT-3 + 500 nM sample; normalized to IgG1 control
T4 sequence (P20783 139-257): T1 sequence (P20783 139-257)
Procedure: as §1

Question: What does the source list for tanezumab [RN624]?
Answer: % binding to TrkB-hFc surface [1]: 8%; pKd (NGF): 11.89; % binding to TrkC-hFc surface [2]: 8%; reduction of post-operative pain vs vehicle, weight bearing test (C57BL/6 mice [3]; 10 mg/kg s.c. 1 hr prior to incision, p<0.001-0.05): significantly reduced the post-operative pain; mean percent weight distribution on affected limb (C57BL/6 mice [3]; 10 mg/kg s.c. pre-incision, Day 0, ±SEM): 49.0 ± 0.5%; mean percent weight distribution on affected limb (C57BL/6 mice [3]; 10 mg/kg, Day 1 after surgery): 44.8 ± 1.9%; mean percent weight distribution on affected limb (C57BL/6 mice [3]; 10 mg/kg, Day 2 after surgery): 42.7 ± 1.8%; mean percent weight distribution on affected limb (C57BL/6 mice [3]; 10 mg/kg, Day 3 after surgery): 48.7 ± 1.9%; mean percent weight distribution on affected limb (C57BL/6 mice [3]; 10 mg/kg, Day 4 after surgery): 47.2 ± 1.2%; mean percent weight distribution on affected limb (C57BL/6 mice [3]; 10 mg/kg, Day 5 after surgery): 49.7 ± 0.7%; pain relief (C57BL/6 male mice; 50 mg/kg s.c. or i.p. at day 7 post-surgery, p<0.001-0.05): Significant pain relief was observed; mean percent change from Hargreaves baseline (C57BL/6 male mice; Table 25, 50 mg/kg s.c. at day 7, day 5 after surgery): −53.5 ± 6.3%; mean percent change from Hargreaves baseline (C57BL/6 male mice; Table 25, 50 mg/kg s.c. at day 7, day 7): −48.4 ± 6.2%; mean percent change from Hargreaves baseline (C57BL/6 male mice; Table 25, 50 mg/kg s.c. at day 7, day 8): 4.5 ± 9.0%; mean percent change from Hargreaves baseline (C57BL/6 male mice; Table 25, 50 mg/kg s.c. at day 7, day 9): −15.2 ± 8.5%; mean percent change from Hargreaves baseline (C57BL/6 male mice; Table 25, 50 mg/kg s.c. at day 7, day 12): −4.2 ± 12.0%; mean percent change from Hargreaves baseline (C57BL/6 male mice; Table 25, 50 mg/kg s.c. at day 7, day 15): 2.1 ± 10.9%; mean percent change from Hargreaves baseline (C57BL/6 male mice; Table 25, 50 mg/kg s.c. at day 7, day 19): −11.5 ± 12.1%; mean percent change from Hargreaves baseline (C57BL/6 male mice; Table 25, 50 mg/kg s.c. at day 7, day 22): −5.7 ± 9.5%; mean percent change from Hargreaves baseline (C57BL/6 male mice; Table 25, 50 mg/kg s.c. at day 7 post-surgery, Baseline): 0.0 ± 0.0%; mean percent change from Hargreaves baseline (C57BL/6 male mice; Table 26, 50 mg/kg i.p. at day 7, day 5 after surgery): −56.6 ± 2.3%; mean percent change from Hargreaves baseline (C57BL/6 male mice; Table 26, 50 mg/kg i.p. at day 7, day 7): −62.3 ± 3.4%; mean percent change from Hargreaves baseline (C57BL/6 male mice; Table 26, 50 mg/kg i.p. at day 7, day 8): −3.3 ± 16.0%; mean percent change from Hargreaves baseline (C57BL/6 male mice; Table 26, 50 mg/kg i.p. at day 7, day 9): −18.4 ± 12.9%; mean percent change from Hargreaves baseline (C57BL/6 male mice; Table 26, 50 mg/kg i.p. at day 7, day 12): −7.0 ± 11.8%; mean percent change from Hargreaves baseline (C57BL/6 male mice; Table 26, 50 mg/kg i.p. at day 7, day 15): −16.2 ± 14.8%; mean percent change from Hargreaves baseline (C57BL/6 male mice; Table 26, 50 mg/kg i.p. at day 7 post-surgery, Baseline): 0.0 ± 0.0%; % binding to TrkA-hFc surface [4]: 7%; Paw Withdrawal Threshold (C57BL/6 mice [5]; 25 mg/kg i.p. on day 1 post-surgery, Baseline): 1.314 ± 0.137 g; Paw Withdrawal Threshold (C57BL/6 mice [5]; 25 mg/kg i.p., 5 hr after treatment): 0.083 ± 0.053 g; Paw Withdrawal Threshold (C57BL/6 mice [5]; 25 mg/kg i.p., 22 hr after treatment): 0.610 ± 0.123 g; Paw Withdrawal Threshold (C57BL/6 mice [5]; 25 mg/kg i.p., 45 hr after treatment): 0.909 ± 0.216 g; Paw Withdrawal Threshold (C57BL/6 mice [5]; 25 mg/kg i.p., 70 hr after treatment): 1.143 ± 0.189 g; Paw Withdrawal Threshold (C57BL/6 mice [5]; 25 mg/kg i.p., Day 1 (post-surgery, before injection)): 0.010 ± 0.002 g; % binding to p75-hFc surface [6]: 19%
